The experiment deals with T1, Paenibacillus lentus alkaline phosphatase AP1 (designated "Native"), serine (S) replacement for an aspartic acid (D), SEQ ID NO: 4 (Paenibacillus lentus, UniProt A0A3Q8S6G4, D102S).
T1 sequence (A0A3Q8S6G4 34-572 D102S): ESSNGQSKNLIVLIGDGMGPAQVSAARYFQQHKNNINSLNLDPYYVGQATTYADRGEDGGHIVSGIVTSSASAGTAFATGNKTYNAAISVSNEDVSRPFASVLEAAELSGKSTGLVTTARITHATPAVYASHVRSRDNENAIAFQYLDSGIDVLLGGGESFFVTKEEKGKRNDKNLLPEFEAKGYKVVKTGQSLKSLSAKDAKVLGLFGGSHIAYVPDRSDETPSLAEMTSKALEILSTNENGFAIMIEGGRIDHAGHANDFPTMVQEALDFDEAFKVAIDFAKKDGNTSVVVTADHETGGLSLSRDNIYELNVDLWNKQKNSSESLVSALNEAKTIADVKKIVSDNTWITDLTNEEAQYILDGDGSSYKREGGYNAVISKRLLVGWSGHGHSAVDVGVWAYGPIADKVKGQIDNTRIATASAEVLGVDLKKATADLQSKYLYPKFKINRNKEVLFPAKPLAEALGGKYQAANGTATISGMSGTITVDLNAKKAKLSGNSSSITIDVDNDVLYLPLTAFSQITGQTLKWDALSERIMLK
Put plainly: Phosphatase kinetics with p-NPP, AP1 ("Native"). Type of experiment: biochemical. As to the method: FIG. 7 presents effect of pH on (A)Vmax (IU/mg) and (B) KM (μM) activity of AP1 (designated “Native”) and APHT (designated “HT”). Assays were performed at 40° C. with p-NPP as substrate in the concentration range 0-5 mM. The enzyme concentration was 2.5 μg/mL for the pH 8 and 0.4 mg/mL for pH 9-13).
FIG. 8 presents effect of pH on (A)Vmax (IU/mg) and (B) KM (μM) activity of AP1 (designated “Native”) and APHT (designated “HT”). Assays were performed at 50° C. with p-NPP as substrate in the concentration range 0-5 mM. The enzyme concentration was 2.5 μg/mL for the pH 8 and 0.4 mg/mL for pH 9-13).
Enzymes, including lysozyme and alkaline phosphatase, are recognized as disruptors of bacterial debris and inflammation. These enzymes reduce inflammation, including by lysing the peptidoglycans and LPS of bacteria, thus deactivating them and thereby bypassing the inflammatory response. An alkaline phosphatase was initially identified and modified from Paenibacillus lentus bacteria and expressed for application and use as a farm animal feed additive. This modified alkaline phosphatase is characterized by having a serine (S) replacement for an aspartic acid (D) in the native bacterial alkaline phosphatase protein sequence and is designated herein as AP1. […] The AP1 alkaline phosphate is described including in U.S. Pat. No. 9,326,535 issued May 3, 2016. The sequence of AP1 is as follows (the serine is in bold and underlined) (SEQ ID NO:4):
• 1 M DEA Buffer pH 10. Dissolve 10.5 g of diethanolamine in to 100 ml of water. The pH adjust with 1 M hydrochloric acid or 1 M NaOH. Filter sterilize and store at 4 C. • 0.5 M Tris Base Buffer pH 10 and 8. Dissolve 6.06 g of Tris in to 100 ml of water. The pH adjust with 1 M hydrochloric acid or 1 M NaOH. Filter sterilize and store at 4 C. • 0.1 M Borate Buffer pH 11 and 12. Dissolve 0.62 g Boric acid, 0.44 g NaCl and Sodium tetraborate 0.95 g in 100 ml H2O. The pH adjust with 1 M hydrochloric acid or 1 M NaOH. Filter sterilize and store at 4 C. • 1 M KCl/NaOH Buffer pH 13. Dissolve 7.4 g KCl in 100 ml water. The pH adjust with 1 M NaOH. Filter sterilize and store at 4 C. • 1 M MgCl2, 23.8 g MgCl2 anhydrous in […] water. Filter sterilize and store at 4 C 3. Activity Assay: p-NPP Substrate
Reactions were carried out at 40° C. using 50 mM Tris buffer pH 7 with 50 mM MgCl2 and at 50° C. using 50 mM DEA buffer pH 10 with 50 mM MgCl2. Enzyme was thawed, aliquoted in 500 μL vials and freeze at −80° C. For 100 μL volume of reaction, components were mixed in 96-well microplate (Fisher 12565501) following the order in TABLE 1. Every reaction condition was done by triplicated at least.
After the adding enzyme, the absorption of product was followed at 405 nm over 5 min in a M5 plate reader with intervals of 20 s. Initial rate was determined for each curve and product formed calculated using the extinction coefficient of 18.5 mM^−1·cm^−1 and a calculated pathlength of 0.5 cm. Initial rates where fitted to Michalis Menten model built in the Kaleidagraph software.
pH effect on enzyme activity was tested at 40 and 50° C. in the corresponding buffer with 50 mM MgCl2 using p-NPP as substrate in the concentration range 0-5.0 mM. The reaction started with the addition of enzyme (2.5 μg/mL for pH 8 and 0.4 μg/mL for pH 9-13) and the absorption at 405 nm was followed for 5 min. Every reaction condition was done by triplicated at least. The initial rates where fitted to Michalis Menten model built in the software Kaleidagraph.

Among the data in US20250011738A1, “HEAT TOLERANT ALKALINE PHOSPHATASE” (BiomEdit, LLC, priority 2021, published 2025) are Km values, retold here.

A word on the Km: it is the concentration of substrate that gives half-maximal velocity. On to `O=[N+]([O-])c1ccc(OP(=O)(O)O)cc1` [p-NPP, p-nitrophenylphosphate], for which the Km reads like this: (40° C., Borate pH 11) 3340 µM; (40° C., DEA pH 10) 776 µM; (40° C., Tris pH 8) 65 µM; (40° C., Tris pH 9) 315 µM; (50° C., Borate pH 11) 573 µM; (50° C., Borate pH 12) 293 µM. Moreover, the Km by setting is: (50° C., KCl/NaOH (pH printed 204; Table 2: 13.0)) 64 µM; (50° C., Tris pH 8) 383 µM; (50° C., Tris pH 9) 1440 µM.
